Results taken from patent US20100267697A1, “ION CHANNEL MODULATORS” (Wyeth, priority 2006, published 2010).
pIC50: −log10 of the molar value.

Target: T1, human Cav2.2 (composed of the subunits α1, β3 and α2δ) (Homo sapiens, UniProt Q00975)
T1 construct: expressed in transfected cells
Assay: FLIPR assay (TSA201 cells stably transfected with human Cav2.2 and human Kir2.3, FLUO-4 Ca2+ signal, KCl depolarization)
Format: cell-based
Details: 70 mM KCl depolarization, average value
Method in brief: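 TSA201 cells co-expressing Cav2.2 (α1, β3, α2δ) and Kir2.3 were loaded with FLUO-4 for 1 h at room temperature. Compound in HBSS with 1% DMSO was preincubated 15 min, then cells were depolarized with 70 mM final KCl (with CaCl2 and HEPES) and the Ca2+ fluorescence was read on FLIPR.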

T1 sequence (Q00975 whole entry): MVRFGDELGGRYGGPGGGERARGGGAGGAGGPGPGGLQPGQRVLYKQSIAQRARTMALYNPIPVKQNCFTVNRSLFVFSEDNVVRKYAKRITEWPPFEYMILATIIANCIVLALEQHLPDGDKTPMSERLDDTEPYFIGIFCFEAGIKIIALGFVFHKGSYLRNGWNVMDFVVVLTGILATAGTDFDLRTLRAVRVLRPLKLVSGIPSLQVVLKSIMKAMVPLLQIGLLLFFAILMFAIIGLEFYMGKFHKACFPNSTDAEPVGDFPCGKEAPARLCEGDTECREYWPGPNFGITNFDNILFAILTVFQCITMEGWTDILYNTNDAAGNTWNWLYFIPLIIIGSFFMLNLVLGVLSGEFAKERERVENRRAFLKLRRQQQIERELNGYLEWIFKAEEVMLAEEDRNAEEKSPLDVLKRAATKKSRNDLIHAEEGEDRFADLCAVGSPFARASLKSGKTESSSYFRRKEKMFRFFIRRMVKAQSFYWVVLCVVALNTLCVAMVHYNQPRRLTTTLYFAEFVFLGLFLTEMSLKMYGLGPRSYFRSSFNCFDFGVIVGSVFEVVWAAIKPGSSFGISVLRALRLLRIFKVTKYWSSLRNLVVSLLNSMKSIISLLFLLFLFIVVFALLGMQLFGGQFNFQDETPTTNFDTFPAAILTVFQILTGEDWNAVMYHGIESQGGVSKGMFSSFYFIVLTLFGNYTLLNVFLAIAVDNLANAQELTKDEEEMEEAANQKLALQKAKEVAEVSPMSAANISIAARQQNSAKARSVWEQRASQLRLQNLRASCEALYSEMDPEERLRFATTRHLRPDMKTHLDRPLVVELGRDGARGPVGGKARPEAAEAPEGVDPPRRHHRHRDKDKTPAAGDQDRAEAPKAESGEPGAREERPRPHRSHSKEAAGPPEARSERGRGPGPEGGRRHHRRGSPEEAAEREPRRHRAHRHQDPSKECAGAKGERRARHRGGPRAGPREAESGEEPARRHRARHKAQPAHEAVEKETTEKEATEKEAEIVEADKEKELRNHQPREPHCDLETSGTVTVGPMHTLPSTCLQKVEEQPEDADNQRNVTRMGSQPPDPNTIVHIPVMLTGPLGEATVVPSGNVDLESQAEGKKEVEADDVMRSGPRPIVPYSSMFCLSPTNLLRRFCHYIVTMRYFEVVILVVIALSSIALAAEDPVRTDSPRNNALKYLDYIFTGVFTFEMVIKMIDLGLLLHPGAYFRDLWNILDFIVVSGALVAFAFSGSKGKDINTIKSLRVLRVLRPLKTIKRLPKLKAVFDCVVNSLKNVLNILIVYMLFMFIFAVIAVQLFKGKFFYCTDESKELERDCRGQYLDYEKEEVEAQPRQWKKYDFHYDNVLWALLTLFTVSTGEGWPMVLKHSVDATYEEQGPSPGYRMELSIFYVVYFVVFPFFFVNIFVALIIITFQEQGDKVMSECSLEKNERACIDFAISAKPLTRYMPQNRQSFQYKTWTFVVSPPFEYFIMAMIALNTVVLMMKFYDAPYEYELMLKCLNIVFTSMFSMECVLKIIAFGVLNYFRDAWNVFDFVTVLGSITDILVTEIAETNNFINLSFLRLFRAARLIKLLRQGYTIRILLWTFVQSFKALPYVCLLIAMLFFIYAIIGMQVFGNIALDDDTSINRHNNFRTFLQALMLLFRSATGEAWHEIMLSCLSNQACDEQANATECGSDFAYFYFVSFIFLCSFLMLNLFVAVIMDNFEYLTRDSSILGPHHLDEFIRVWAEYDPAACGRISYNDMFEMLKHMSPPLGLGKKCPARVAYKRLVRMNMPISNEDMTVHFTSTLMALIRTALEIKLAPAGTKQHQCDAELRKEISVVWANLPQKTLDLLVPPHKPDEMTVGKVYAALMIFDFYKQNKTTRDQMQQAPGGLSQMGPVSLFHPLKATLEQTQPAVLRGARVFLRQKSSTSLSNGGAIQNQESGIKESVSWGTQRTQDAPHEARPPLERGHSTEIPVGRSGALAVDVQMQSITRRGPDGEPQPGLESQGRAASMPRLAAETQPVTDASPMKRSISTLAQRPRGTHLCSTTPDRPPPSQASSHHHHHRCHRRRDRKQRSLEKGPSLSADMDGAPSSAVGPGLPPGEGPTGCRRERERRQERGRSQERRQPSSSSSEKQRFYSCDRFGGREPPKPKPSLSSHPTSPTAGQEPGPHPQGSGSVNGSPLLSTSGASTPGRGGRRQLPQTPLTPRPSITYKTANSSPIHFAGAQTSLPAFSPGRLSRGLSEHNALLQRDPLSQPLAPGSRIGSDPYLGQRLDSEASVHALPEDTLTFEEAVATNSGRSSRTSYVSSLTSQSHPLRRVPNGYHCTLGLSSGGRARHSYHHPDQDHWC
T1 sequence (P54284 whole entry partner): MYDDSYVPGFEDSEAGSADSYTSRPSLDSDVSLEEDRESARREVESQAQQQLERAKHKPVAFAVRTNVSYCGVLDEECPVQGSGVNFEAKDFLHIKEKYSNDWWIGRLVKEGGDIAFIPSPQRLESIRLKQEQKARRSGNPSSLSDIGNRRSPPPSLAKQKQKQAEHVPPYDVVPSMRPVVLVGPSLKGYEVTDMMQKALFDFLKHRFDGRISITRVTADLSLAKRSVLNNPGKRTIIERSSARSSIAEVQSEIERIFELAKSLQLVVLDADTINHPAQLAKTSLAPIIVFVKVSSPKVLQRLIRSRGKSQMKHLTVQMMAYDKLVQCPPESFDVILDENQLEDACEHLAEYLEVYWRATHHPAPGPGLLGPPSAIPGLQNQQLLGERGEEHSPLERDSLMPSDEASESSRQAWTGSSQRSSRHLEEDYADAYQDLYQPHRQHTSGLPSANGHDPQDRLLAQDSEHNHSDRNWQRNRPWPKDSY
T1 sequence (P54289 25-946 partner limits assumed): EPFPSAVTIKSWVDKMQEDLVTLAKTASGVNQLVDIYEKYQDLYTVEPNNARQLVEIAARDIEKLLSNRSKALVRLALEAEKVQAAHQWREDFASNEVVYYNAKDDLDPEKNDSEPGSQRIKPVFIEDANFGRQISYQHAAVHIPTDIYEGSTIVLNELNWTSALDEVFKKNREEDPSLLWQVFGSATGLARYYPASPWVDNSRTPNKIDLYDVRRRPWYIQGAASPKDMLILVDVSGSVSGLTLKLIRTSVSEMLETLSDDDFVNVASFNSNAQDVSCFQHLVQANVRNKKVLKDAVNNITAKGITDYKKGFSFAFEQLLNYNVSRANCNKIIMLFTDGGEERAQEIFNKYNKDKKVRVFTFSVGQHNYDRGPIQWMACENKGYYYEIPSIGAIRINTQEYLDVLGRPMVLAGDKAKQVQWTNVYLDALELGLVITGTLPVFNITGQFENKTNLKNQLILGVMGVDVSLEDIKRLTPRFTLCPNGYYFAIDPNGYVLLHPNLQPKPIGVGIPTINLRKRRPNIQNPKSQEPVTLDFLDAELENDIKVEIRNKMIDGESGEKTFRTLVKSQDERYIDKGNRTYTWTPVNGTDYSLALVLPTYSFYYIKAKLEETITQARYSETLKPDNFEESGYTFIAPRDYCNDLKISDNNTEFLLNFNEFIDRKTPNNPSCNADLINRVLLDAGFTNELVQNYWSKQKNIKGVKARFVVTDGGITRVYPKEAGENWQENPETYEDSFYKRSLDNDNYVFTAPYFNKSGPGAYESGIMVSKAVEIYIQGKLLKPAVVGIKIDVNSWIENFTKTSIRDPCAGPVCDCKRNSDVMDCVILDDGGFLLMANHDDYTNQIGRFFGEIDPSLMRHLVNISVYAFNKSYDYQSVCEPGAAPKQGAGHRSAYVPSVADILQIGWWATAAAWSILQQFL
T1 sequence (P54289 947-1103 partner limits assumed): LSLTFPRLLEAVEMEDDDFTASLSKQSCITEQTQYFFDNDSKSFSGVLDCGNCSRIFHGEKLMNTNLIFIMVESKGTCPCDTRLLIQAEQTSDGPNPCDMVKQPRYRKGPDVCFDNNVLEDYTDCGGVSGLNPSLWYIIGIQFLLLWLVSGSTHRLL

pIC50 | SMILES
5.04 | CCN(c1nc(CN(C(C)=O)c2ccc(F)cc2)cs1)C1CC1 [Compound 210, N-({2-[cyclopropyl(ethyl)amino]-1,3-thiazol-4-yl}methyl)-N-(4-fluorophenyl)acetamide]
5.42 | CC(C)(C)C(=O)N(CCCc1csc(N2CCOCC2)n1)c1ccc(F)cc1 [Compound 213, N-(4-fluorophenyl)-2,2-dimethyl-N-[3-(2-morpholin-4-yl-1,3-thiazol-4-yl)propyl]propanamide]
5.06 | CCN(CC)c1nc(CN(C(C)=O)c2ccc(F)cc2)cs1 [Compound 219, N-{[2-(diethylamino)-1,3-thiaozl-4-yl]methyl}-N-(4-fluorophenyl)acetamide]
4.78 | CC(=O)N(Cc1csc(N2CCC(C#N)CC2)n1)c1ccc(F)cc1 [Compound 220, N-{[2-(4-cyanopiperidin-1-yl)-1,3-thiazol-4-yl]methyl}-N-(4-fluorophenyl)acetamide]
4.50 | CC(=O)N(Cc1csc(N2CCCC(O)C2)n1)c1ccc(F)cc1 (stereo not shown) [Compound 223, N-(4-fluorophenyl)-N-{[2-(3-hydroxypiperidin-1-yl)-1,3-thiazol-4-yl]methyl}acetamide]
4.34 | CC(=O)N(Cc1ccc(N(C)CCO)nc1)c1ccc(F)cc1 [Compound 230, N-(4-fluorophenyl)-N-({6-[(2-hydroxyethyl)(methyl)amino]pyridin-3-yl}methyl)acetamide]
4.30 | CC(=O)N(Cc1ccc(N2CCC(O)CC2)nc1)c1ccc(F)cc1 [Compound 231, N-(4-fluorophenyl)-N-{[6-(4-hydroxypiperidin-1-yl)pyridin-3-yl]methyl}acetamide]
4.52 | CC(=O)N(Cc1ccc(N2CCCC(O)C2)nc1)c1ccc(F)cc1 (stereo not shown) [Compound 232, N-(4-fluorophenyl)-N-{[6-(3-hydroxypiperidin-1-yl)pyridin-3-yl]methyl}acetamide]
4.86 | CC(=O)N(Cc1ccc(N2CCCC(CO)C2)nc1)c1ccc(F)cc1 (stereo not shown) [Compound 234, N-(4-fluorophenyl)-N-({6-[3-(hydroxymethyl)piperidin-1-yl]pyridin-3-yl}methyl)acetamide]
4.53 | CC(=O)N(Cc1ccc(N2CCN(C)CC2)nc1)C1CCCCC1 [Compound 236, N-cyclohexyl-N-{[6-(4-methylpiperzin-1-yl)pyridin-3-yl]methyl}acetamide]
4.62 | CC(=O)N(Cc1ccc(N2CCC(CO)CC2)nc1)C1CCCCC1 [Compound 237, N-cyclohexyl-N-({6-[4-(hydroxymethyl)piperidin-1-yl]pyridin-3-yl}methyl)acetamide]
5.48 | CCN(c1nc(CN(C(C)=O)C2CCC(C(C)(C)C)CC2)cs1)C1CC1 (stereo not shown) [Compound 238, N-(4-tert-butylcyclohexyl)-N-({2-[cyclopropyl(ethyl)amino]-1,3-thiazol-4-yl}methyl)acetamide]
5.47 | CC1CN(c2nc(CN(C(=O)C(C)(C)C)c3ccc(F)cc3)cs2)CC(C)O1 (stereo not shown) [Compound 239, 2,2-dimethylpropanamide N-{[2-(2,6-dimethylmorpholin-4-yl)-1,3-thiazol-4-yl]methyl}-N-(4-fluorophenyl)-]
5.27 | CC(C)(C)C(=O)N(Cc1csc(-c2cccc(O)c2)n1)c1ccc(F)cc1 [Compound 245, N-(4-fluorophenyl)-N-{[2-(3-hydroxyphenyl)-1,3-thiazol-4-yl]methyl}-2,2-dimethylpropanamide]
5.14 | CC(C)(C)C(=O)N(Cc1csc(-c2ccccc2O)n1)c1ccc(F)cc1 [Compound 246, N-(4-fluorophenyl)-N-{[2-(2-hydroxyphenyl)-1,3-thiazol-4-yl]methyl}-2,2-dimethylpropanamide]

The next lines start with the compound.

SMILES | pIC50
O=C(C1CC1)N(Cc1csc(N2CCOCC2)n1)c1ccc(F)cc1 [Compound 207, N-(4-fluorophenyl)-N-[(2-morpholin-4-yl-1,3-thiazol-4-yl)methyl]cyclopropanecarboxamide] | 4.62
CC(C)C(=O)N(Cc1csc(N2CCOCC2)n1)c1ccc(F)cc1 [Compound 208, N-(4-fluorophenyl)-2-methyl-N-[(2-morpholin-4-yl-1,3-thiazol-4-yl)methyl]propanamide] | 4.65
CC(C)(C)OC(=O)N1CCC(c2nc(CN(C(=O)C(C)(C)C)c3ccc(F)cc3)cs2)CC1 [Compound 209, tert-butyl 4-(4-{[(2,2-dimethylpropanoyl)(4-fluorophenyl)amino]methyl}--1,3-thiazol-2-yl)piperidine-1-carboxylate] | 5.57
CCN(c1nc(CN(C(=O)C2CCCCC2)c2ccc(F)cc2)cs1)C1CC1 [Compound 211, N-({2-[cyclopropyl(ethyl)amino]-1,3-thiazol-4-yl}methyl)-N-(4-fluorophenyl)cyclohexanecarboxamide] | 5.62
CC(C)(C)C(=O)N(CCc1csc(N2CCOCC2)n1)c1ccc(F)cc1 [Compound 212, N-(4-flurophenyl)-2,2-dimethyl-N-[2-(2-morpholin-4-yl-1,3-thiazol-4-yl)ethyl]propanamide] | 5.23
CC(=O)N(Cc1csc(Br)n1)c1ccc(F)cc1 [Compound 214, N-[(2-bromo-1,3-thiazol-4-yl)methyl]-N-(4-fluorophenyl)acetamide] | 4.31
CC(=O)N(Cc1ccc(Cl)nc1)c1ccc(F)cc1 [Compound 215, N-[(6-chloropyridin-3-yl)methyl]-N-(4-fluorophenyl)acetamide] | 4.67
CC(=O)N(Cc1csc(N2CCN(C)CC2)n1)c1ccc(F)cc1 [Compound 216, N-(4-fluorophenyl)-N-{[2-(4-methylpiperazin-1-yl)-1,3-thiazol-4-yl]methyl}acetamide] | 4.53
CC(=O)N(Cc1csc(N2CCCN(C)CC2)n1)c1ccc(F)cc1 [Compound 217, N-(4-fluorophenyl)-N-{[2-(4-methyl-1,4-diazepan-1-yl)-1,3-thiazol-4-yl]methyl}acetamide] | 4.53
CC(=O)N(Cc1csc(N2CCOCC2)n1)c1ccc(F)cc1 [Compound 218, N-(4-fluorophenyl)-N-[(2-morpholin-4-yl-1,3-thiaozl-4-yl)methyl]acetamide] | 4.63
CC(=O)N(Cc1csc(N(C)CCO)n1)c1ccc(F)cc1 [Compound 221, N-(4-fluorophenyl)-N-({2-[(2-hydroxyethyl)(methyl)amino]-1,3-thiazol-4-yl}methyl)acetamide] | 4.43
CC(=O)N(Cc1csc(N2CCC(O)CC2)n1)c1ccc(F)cc1 [Compound 222, N-(4-fluorophenyl)-N-{[2-(4-hydroxypiperidin-1-yl)-1,3-thiazol-4-yl]methyl}acetamide] | 4.65
CC(=O)N(Cc1csc(N2CCC(CO)CC2)n1)c1ccc(F)cc1 [Compound 224, N-(4-fluorophenyl)-N-({2-[4-(hydroxymethyl)piperidin-1-yl]-1,3-thiazol-4-yl}methyl)acetamide] | 4.91
CC(=O)N(Cc1csc(N2CCCC(CO)C2)n1)c1ccc(F)cc1 (stereo not shown) [Compound 225, N-(4-fluorophenyl)-N-({2-[3-(hydroxymethyl)piperidin-1-yl]-1,3-thiazol-4-yl}methyl)acetamide] | 4.79
CC(=O)N(Cc1ccc(N2CCCN(C)CC2)nc1)c1ccc(F)cc1 [Compound 226, N-(4-fluorophenyl)-N-{[6-(4-methyl-1,4-diazepan-1-yl)pyridin-3-yl]methyl}acetamide] | 4.58
CC(=O)N(Cc1ccc(N2CCOCC2)nc1)c1ccc(F)cc1 [Compound 227, N-(4-fluorophenyl)-N-[(6-morpholin-4-ylpyridin-3-yl)methyl]acetamide] | 4.46
CCN(CC)c1ccc(CN(C(C)=O)c2ccc(F)cc2)cn1 [Compound 228, N-{[6-(diethylamino)pyridin-3-yl]methyl}-N-(4-fluorophenyl)acetamide] | 4.90
CC(=O)N(Cc1ccc(N2CCC(C#N)CC2)nc1)c1ccc(F)cc1 [Compound 229, N-{[6-(4-cyanopiperidin-1-yl)pyridin-3-yl]methyl}-N-(4-fluorophenyl)acetamide] | 4.71
CC(=O)N(Cc1ccc(N2CCC(CO)CC2)nc1)c1ccc(F)cc1 [Compound 233, N-(4-fluorophenyl)-N-({6-[4-(hydroxymethyl)piperidin-1-yl]pyridin-3-yl}methyl)acetamide] | 4.65
CC(=O)N(Cc1ccc(N2CCC(CO)CC2)nc1)C1CCCC1 [Compound 235, N-cyclopentyl-N-({6-[4-(hydroxymethyl)piperidin-1-yl]pyridin-3-yl}methyl)acetamide] | 4.44
CC(C)(C)C(=O)N(Cc1csc(-c2cnc3ccccc3c2)n1)c1ccc(F)cc1 [Compound 240, N-(4-fluorophenyl)-2,2-dimethyl-N-[(2-quinolin-3-yl-1,3-thiazol-4-yl)methyl]propanamide] | 5.00
CC(C)(C)C(=O)N(Cc1csc(-c2ccc(C(F)(F)F)cc2)n1)c1ccc(F)cc1 [Compound 241, N-(4-fluorophenyl)-2,2-dimethyl-N-({2-[4-(trifluoromethyl)phenyl]-1,3-thiazol-4-yl}methyl)propanamide] | 5.17
CC(C)(C)C(=O)N(Cc1csc(-c2cccc(C(F)(F)F)c2)n1)c1ccc(F)cc1 [Compound 242, N-(4-fluorophenyl)-2,2-dimethyl-N-({2-[3-(trifluoromethyl)phenyl]-1,3-thiazol-4-yl]methyl)propanamide] | 5.26
CC(C)(C)C(=O)N(Cc1csc(-c2ccccc2C(F)(F)F)n1)c1ccc(F)cc1 [Compound 243, N-(4-fluorophenyl)-2,2-dimethyl-N-({2-[2-(trifluoromethyl)phenyl]-1,3-thiazol-4-yl}methyl)propanamide] | 5.39
CC(C)(C)C(=O)N(Cc1csc(-c2ccc(O)cc2)n1)c1ccc(F)cc1 [Compound 244, N-(4-fluorophenyl)-N-{[2-(4-hydroxyphenyl)-1,3-thiazol-4-yl]methyl}-2,2-dimethylpropanamide] | 5.14
